Patent US5399543A, “3-[4-(phenylmethoxy)phenyl]-1-substituted-6-haloalkyl-uracil herbicides” (FMC Corporation, priority 1993, dated 1995)

Experiments:
Cocklebur [1] = assay: Postemergence herbicidal activity, cocklebur; assay type: in vivo, Xanthium pensylvanicum; conditions: Xanthium strumarium, post-emergence, 0.3 kg/ha, after 17-21 days, read-out: Postemergence herbicidal activity (% control), Cocklebur
Protocol: (§1) The 3-[4-(phenylmethoxy)phenyl]-1-substituted-6-haloalkyluracil herbicides of this invention were tested for pre- and postemergence herbicidal activity using a variety of crops and weeds. The test plants included soybean (Glycine max var. Williams), field corn (Zea mays var. Agway 425X), wheat (Triticum aestivum var. Wheaton), morningglory (Ipomea lacunosa or Ipomea hederacea), velvetleaf (Abutilon theophrasti), green foxtail (Setaria viridis), Johnsongrass (Sorghum halepense), blackgrass (Aloepecurus myosuroides), common chickweed (Stellaria media), and common cocklebur (Xanthium pensylvanicum).
(§2) For preemergence testing, two disposable fiber flats (8 cm×15 cm×25 cm) for each rate of application of each candidate herbicide were filled to an approximate depth of 6.5 cm with steam-sterilized sandy loam soil. The soil was leveled and impressed with a template to provide five evenly spaced furrows 13 cm long and 0.5 cm deep in each flat. Seeds of soybean, wheat, corn, green foxtail, and johnsongrass were planted in the furrows of the first flat, and seeds of velvetleaf, morningglory, common chickweed, cocklebur, and blackgrass were planted in the furrows of the second flat. The five-row template was employed to firmly press the seeds into place. A topping soil of equal portions of sand and sandy loam soil was placed uniformly on top of each flat to a depth of approximately 0.5 cm. Flats for postemergence testing were prepared in the same manner except that they were planted 8-12 days prior to the preemergence flats and were placed in a greenhouse and watered, thus allowing the seeds to germinate and the foliage to develop.
(§3) In both pre- and postemergence tests, a stock solution of the candidate herbicide was prepared by dissolving 0.27 g of the compound in 20 mL of water/acetone (50/50) containing 0.5% v/v sorbitan monolaurate. For an application rate of 3000 g/ha of herbicide a 10 mL portion of the stock solution was diluted with water/acetone (50/50) to 45 mL.
(§4) The preemergence flats were initially subjected to a light water spray. The four flats were placed two by two along a conveyor belt (i.e., the two preemergence followed by the two postemergence flats). The conveyor belt fed under a spray nozzle mounted about ten inches above the postemergent foliage. The preemergent flats were elevated on the belt so that the soil surface was at the same level below the spray nozzle as the foliage canopy of the postemergent plants. The spray of herbicidal solution was commenced and once stabilized, the flats were passed under the spray at a speed to receive a coverage equivalent of 1000 L/ha. At this coverage the application rates are those shown in the above table for the individual herbicidal solutions. The preemergence flats were watered immediately thereafter, placed in the greenhouse and watered regularly at the soil surface. The postemergence flats were immediately placed in the greenhouse and not watered until 24 hours after treatment with the test solution. Thereafter they were regularly watered at ground level. After 17-21 days the plants were examined and the phytotoxicity data were recorded.
(§5) Herbicidal activity data at selected application rates are given for various compounds of this invention in Table 2 and Table 3. The test compounds are identified by numbers which correspond to those in Table 1.
(§6) Phytotoxicity data were taken as percent control. Percent control was determined by a method similar to the 0 to 100 rating system disclosed in "Research Methods in Weed Science," 2nd ed., B. Truelove, Ed.; Southern Weed Science Society; Auburn University, Auburn, Ala., 1977.

Cocklebur [2] = assay: Preemergence herbicidal activity, cocklebur; assay type: in vivo, Xanthium pensylvanicum; conditions: Xanthium strumarium, pre-emergence, 0.3 kg/ha, after 17-21 days, read-out: Preemergence herbicidal activity (% control), Cocklebur
Protocol: as §1, §2, §3, §4, §5, §6

Chickweed [3] = assay: Postemergence herbicidal activity, chickweed; assay type: in vivo; conditions: Stellaria media, post-emergence, 0.3 kg/ha, after 17-21 days, read-out: Postemergence herbicidal activity (% control), Chickweed
Protocol: as §1, §2, §3, §4, §5, §6

Johnsongrass [4] = assay: Postemergence herbicidal activity, johnsongrass; assay type: in vivo; conditions: Sorghum halepense, post-emergence, 0.3 kg/ha, after 17-21 days, read-out: Postemergence herbicidal activity (% control), Johnsongrass
Protocol: as §1, §2, §3, §4, §5, §6

Chickweed [5] = assay: Preemergence herbicidal activity, chickweed; assay type: in vivo; conditions: Stellaria media, pre-emergence, 0.3 kg/ha, after 17-21 days, read-out: Preemergence herbicidal activity (% control), Chickweed
Protocol: as §1, §2, §3, §4, §5, §6

Velvetleaf [6] = assay: Preemergence herbicidal activity, velvetleaf; assay type: in vivo; conditions: Abutilon theophrasti, pre-emergence, 0.3 kg/ha, after 17-21 days, read-out: Preemergence herbicidal activity (% control), Velvetleaf
Protocol: as §1, §2, §3, §4, §5, §6

Corn [7] = assay: Postemergence herbicidal activity, corn; assay type: in vivo, Zea mays var. Agway 425X; conditions: Zea mays, post-emergence, 0.3 kg/ha, after 17-21 days, read-out: Postemergence herbicidal activity (% control), Corn
Protocol: as §1, §2, §3, §4, §5, §6

Green foxtail [8] = assay: Preemergence herbicidal activity, green foxtail; assay type: in vivo; conditions: Setaria viridis, pre-emergence, 0.3 kg/ha, after 17-21 days, read-out: Preemergence herbicidal activity (% control), Green foxtail
Protocol: as §1, §2, §3, §4, §5, §6

Wheat [9] = assay: Postemergence herbicidal activity, wheat; assay type: in vivo, Triticum aestivum var. Wheaton; conditions: Triticum aestivum, post-emergence, 0.3 kg/ha, after 17-21 days, read-out: Postemergence herbicidal activity (% control), Wheat
Protocol: as §1, §2, §3, §4, §5, §6

Blackgrass [10] = assay: Postemergence herbicidal activity, blackgrass; assay type: in vivo, Aloepecurus myosuroides; conditions: Alopecurus myosuroides, post-emergence, 0.3 kg/ha, after 17-21 days, read-out: Postemergence herbicidal activity (% control), Blackgrass
Protocol: as §1, §2, §3, §4, §5, §6

Soybean [11] = assay: Preemergence herbicidal activity, soybean; assay type: in vivo, Glycine max var. Williams; conditions: Glycine max, pre-emergence, 0.3 kg/ha, after 17-21 days, read-out: Preemergence herbicidal activity (% control), Soybean
Protocol: as §1, §2, §3, §4, §5, §6

Johnsongrass [12] = assay: Preemergence herbicidal activity, johnsongrass; assay type: in vivo; conditions: Sorghum halepense, pre-emergence, 0.3 kg/ha, after 17-21 days, read-out: Preemergence herbicidal activity (% control), Johnsongrass
Protocol: as §1, §2, §3, §4, §5, §6

Corn [13] = assay: Preemergence herbicidal activity, corn; assay type: in vivo, Zea mays var. Agway 425X; conditions: Zea mays, pre-emergence, 0.3 kg/ha, after 17-21 days, read-out: Preemergence herbicidal activity (% control), Corn
Protocol: as §1, §2, §3, §4, §5, §6

Green foxtail [14] = assay: Postemergence herbicidal activity, green foxtail; assay type: in vivo; conditions: Setaria viridis, post-emergence, 0.3 kg/ha, after 17-21 days, read-out: Postemergence herbicidal activity (% control), Green foxtail
Protocol: as §1, §2, §3, §4, §5, §6

Blackgrass [15] = assay: Preemergence herbicidal activity, blackgrass; assay type: in vivo, Aloepecurus myosuroides; conditions: Alopecurus myosuroides, pre-emergence, 0.3 kg/ha, after 17-21 days, read-out: Preemergence herbicidal activity (% control), Blackgrass
Protocol: as §1, §2, §3, §4, §5, §6

Soybean [16] = assay: Postemergence herbicidal activity, soybean; assay type: in vivo, Glycine max var. Williams; conditions: Glycine max, post-emergence, 0.3 kg/ha, after 17-21 days, read-out: Postemergence herbicidal activity (% control), Soybean
Protocol: as §1, §2, §3, §4, §5, §6

Wheat [17] = assay: Preemergence herbicidal activity, wheat; assay type: in vivo, Triticum aestivum var. Wheaton; conditions: Triticum aestivum, pre-emergence, 0.3 kg/ha, after 17-21 days, read-out: Preemergence herbicidal activity (% control), Wheat
Protocol: as §1, §2, §3, §4, §5, §6

Morningglory [18] = assay: Preemergence herbicidal activity, morningglory; assay type: in vivo, Ipomea lacunosa or Ipomea hederacea; conditions: Ipomoea, pre-emergence, 0.3 kg/ha, after 17-21 days, read-out: Preemergence herbicidal activity (% control), Morningglory
Protocol: as §1, §2, §3, §4, §5, §6

Velvetleaf [19] = assay: Postemergence herbicidal activity, velvetleaf; assay type: in vivo; conditions: Abutilon theophrasti, post-emergence, 0.3 kg/ha, after 17-21 days, read-out: Postemergence herbicidal activity (% control), Velvetleaf
Protocol: as §1, §2, §3, §4, §5, §6

Morningglory [20] = assay: Postemergence herbicidal activity, morningglory; assay type: in vivo, Ipomea lacunosa or Ipomea hederacea; conditions: Ipomoea, post-emergence, 0.3 kg/ha, after 17-21 days, read-out: Postemergence herbicidal activity (% control), Morningglory
Protocol: as §1, §2, §3, §4, §5, §6

| SMILES | activity at 300 g/ha (Cocklebur [1]) [%] | activity at 300 g/ha (Cocklebur [2]) [%] | activity at 300 g/ha (Chickweed [3]) [%] | activity at 300 g/ha (Johnsongrass [4]) [%] | activity at 300 g/ha (Chickweed [5]) [%] | activity at 300 g/ha (Velvetleaf [6]) [%] | activity at 300 g/ha (Corn [7]) [%] | activity at 300 g/ha (Green foxtail [8]) [%] | activity at 300 g/ha (Wheat [9]) [%] | activity at 300 g/ha (Blackgrass [10]) [%] | activity at 300 g/ha (Soybean [11]) [%] | activity at 300 g/ha (Johnsongrass [12]) [%] | activity at 300 g/ha (Corn [13]) [%] | activity at 300 g/ha (Green foxtail [14]) [%] | activity at 300 g/ha (Blackgrass [15]) [%] | activity at 300 g/ha (Soybean [16]) [%] | activity at 300 g/ha (Wheat [17]) [%] | activity at 300 g/ha (Morningglory [18]) [%] | activity at 300 g/ha (Velvetleaf [19]) [%] | activity at 300 g/ha (Morningglory [20]) [%] |
| --- | --- | --- | --- | --- | --- | --- | --- | --- | --- | --- | --- | --- | --- | --- | --- | --- | --- | --- | --- | --- |
| Cn1c(C(F)(F)F)cc(=O)n(-c2ccc(OCc3ccc(F)cc3)cc2)c1=O [Compound 5] | 100 | 40 | 100 | 75 | 100 | 100 | 75 | 100 | 0 | 30 | 60 | 90 | 50 | 90 | 20 | 90 | 20 | 100 | 100 | 100 |
| Cn1c(C(F)(F)F)cc(=O)n(-c2ccc(OCc3ccc(Cl)cc3Cl)cc2)c1=O [Compound 6] | 60 | 10 | 0 | 20 | 10 | 100 | 20 | 100 | 0 | 0 | 20 | 60 | 10 | 40 | 0 | 40 | 0 | 45 | 80 | 50 |
| Cn1c(C(F)(F)F)cc(=O)n(-c2ccc(OCc3c(Cl)cccc3Cl)cc2)c1=O [Compound 7] | 0 | 0 | 0 | 0 | 0 | 0 | 0 | 0 | 0 | 0 | 0 | 0 | 0 | 90 | 0 | 0 | 0 | 0 | 0 | 10 |
| COc1cccc(COc2ccc(-n3c(=O)cc(C(F)(F)F)n(C)c3=O)cc2)c1 [Compound 8] | 100 | 0 | 100 | 100 | 90 | 100 | 85 | 100 | 10 | 10 | 10 | 80 | 35 | 100 | 10 | 85 | 15 | 65 | 100 | 100 |
| Cn1c(C(F)(F)F)cc(=O)n(-c2ccc(OCc3ccccc3)cc2F)c1=O [Compound 9] | 100 | 50 | 80 | 95 | 90 | 100 | 70 | 100 | 20 | 0 | 85 | 100 | 80 | 100 | 30 | 70 | 40 | 100 | 100 | 100 |
